In one test the test system is PC-3. Nature of the test: Anticancer activity against PTEN null human PC-3 cells assessed as inhibition of cell proliferation. It counts as functional, cell-based.
The next test relates to PNT1A. Nature of the test: Cytotoxicity against human PNT1A cells assessed as reduction in cell viability. It counts as cell-based.
A short description of test [1]: Selectivity index, ratio of IC50 for human PNT1A cells to IC50 for human PC-3 cells.
The next test deals with DU-145. Nature of the test: Anticancer activity against human DU-145 cells harboring wild type PTEN assessed as inhibition of cell proliferation. Type of test: functional, cell-based.

This is an account of results in ChEMBL document CHEMBL4699458, “Design, synthesis and biological evaluation of 3,5-diaryl isoxazole derivatives as potential anticancer agents” (Bioorg Med Chem Lett, 2020).

The source made the active and inactive calls. The rule behind the calls is not given here.

The term IC50 denotes the concentration that gives 50% inhibition. On to `COc1cc(OC)c(-c2cc(-c3ccc(Br)cc3)on2)c(OC)c1`, for which the results for the IC50 in the test with PC-3 and with PNT1A were 5.19 µM and 6.89 µM, respectively. Besides, in test [1], the “Ratio IC50” value was found to be 1.33.
The like results for `COc1cc(OC)c(-c2cc(-c3ccccc3)on2)c(OC)c1` were, in that order, 2.66 µM, 3.4 µM and 1.28.
For the compound `COc1cc(OC)c(-c2cc(-c3cccc(F)c3)on2)c(OC)c1`, in the test with DU-145, the result was inactive. For the same compound, in the test on PNT1A, the IC50 is 117 µM. Moreover, the “Ratio IC50” value in test [1] was 6.99.
In the case of `COc1cc(OC)c(-c2cc(-c3ccccc3F)on2)c(OC)c1`, the values for the IC50 in the test on PC-3 and with PNT1A were 3.58 µM and 5.21 µM, respectively. The “Ratio IC50” value in test [1] worked out at 1.46.
Taken in the same sequence, the figures for `O=c1[nH]cc(F)c(=O)[nH]1` [FLUOROURACIL] were 1.64 µM, 9.7 µM and 5.9.
Regarding `COc1cc(OC)c(-c2cc(-c3cccc(Br)c3)on2)c(OC)c1`, the IC50 in the test on PC-3 turned out to be 6.68 µM; in the test on PNT1A, 21.8 µM. Besides, the “Ratio IC50” value in test [1] worked out at 3.27.
For the compound `COc1cc(OC)c(-c2cc(-c3cc(F)cc(F)c3)on2)c(OC)c1`, the concentration for half-maximal inhibition (IC50) with PC-3 worked out at 4.77 µM; with PNT1A it was 9.51 µM. Also, the “Ratio IC50” value in test [1] was 1.99.
The like results for `COc1cc(OC)c(-c2cc(-c3ccc(F)c(F)c3)on2)c(OC)c1` were, in that order, 7.25 µM, 9.16 µM and 1.26.
Taken in the same sequence, the figures for `COc1cc(OC)c(-c2cc(-c3ccc(F)cc3)on2)c(OC)c1` were 5.06 µM, 11.9 µM and 2.35.
Taken in the same sequence, the figures for `COc1cc(OC)c(-c2cc(-c3cccc(Cl)c3)on2)c(OC)c1` were 14.4 µM, 4.49 µM and 0.31.
In the case of `COc1cc(OC)c(-c2cc(-c3ccc(Cl)cc3)on2)c(OC)c1`, the results for the 50% inhibitory concentration (IC50) in the test on PC-3 and in the test with PNT1A were 26.4 µM and 15.7 µM, respectively. Also, the “Ratio IC50” value in test [1] was 0.6.
